The test system of test [1] is neuronal SNAREs only. The experiment in a line: Single vesicle content mixing assay, neuronal SNAREs only (VAMP2 vesicles). To be noted: 10 μM peptide; raw count. The test is classed as biochemical. The text has this:
(§1) For single vesicle content mixing assay, the lipid composition of the SV, SG, VAMP2, or VAMP8 vesicles was phosphatidylcholine (PC) (48%), phosphatidylethanolamine (PE) (20%), phosphatidylserine (PS) (12%), and cholesterol (20%); for both the neuronal and airway PM vesicles the lipid composition was Brain Total Lipid Extract supplemented 3.5 mol % PIP2, and 0.1 mol % biotinylated phosphatidylethanolamine (PE). The reconstitution method for neuronal PM and SV vesicles was described in detail previously (see Lai et al., 2017; Kyoung et al., 2011; and Lai et al., 2014). The same methods were used for airway PM, SG, VAMP2, and VAMP8 vesicles. […] A 3-5 fold excess of SNAP-25A or SNAP-23 (with respect to Stx1A or Stx3) and 3.5 mol % PIP2 were added to the protein-lipid mixture for neuronal or airway PM vesicles. […] For the preparation of SV, SG, VAMP2, or VAMP8 vesicles for single vesicle content mixing assay, 50 mM sulforhodamine B (Thermo Fisher Scientific) was added to the protein-lipid mixture. The vesicles subsequently formed during size exclusion chromatography using a Sepharose CL-4B column, packed under near constant pressure by gravity with a peristaltic pump (GE Healthcare) in a 5.5 ml column with a 5 ml bed volume that was equilibrated with buffer V (20 mM HEPES, pH 7.4, 90 mM NaCl) supplemented with 20 μM EGTA and 0.1% 2-mercaptoethanol. The eluent was subjected to dialysis into 21 of detergent-free buffer V supplemented with 20 μM EGTA, 0.1% 2-mercaptoethanol, 5 g of Bio-beads SM2 (Bio-Rad) and 0.8 g/L Chelex 100 resin (Bio-Rad). After 4 hours, the buffer was exchanged with 21 of fresh buffer V supplemented with 20 μM EGTA, 0.1% 2-mercaptoethanol and Bio-beads, and the dialysis continued for another 12 h (overnight). […] For ensemble lipid mixing assay, the reconstitution method is the same as that for the single vesicle content mixing assay, except that 50 mM sulforhodamine B was omitted for all the steps. Single vesicle content mixing experiments. All single vesicle fusion and single molecule experiments were performed on a prism-type total internal reflection fluorescence (TIRF) microscope using 532 nm (green) laser (CrystaLaser) excitation. Two observation channels were created by a 640 nm single-edge dichroic […]36, Shemrock): one channel was used for the fluorescence emission intensity of the content dyes and the other channel for that of the Cy5 dye that are part of the injected Ca^2+-solution. The two channels were recorded on two adjacent rectangular areas (45×90 m^2) of a charge-coupled device (CCD) camera (iXon+DV […], Andor Technology). The imaging data were recorded with the […] software developed by Taekjip Ha, Johns Hopkins University, Baltimore. Flow chambers were assembled by creating a “sandwich” consisting of a quartz slide and a glass coverslip that were both coated with polyethylene glycol (PEG) molecules consisting 0.1% (w/v) biotinylated-PEG except when stated otherwise, and using double-sided tape to create up to five flow-chambers. The single vesicle content mixing assay described in Lai et al. (2014) was used to monitor vesicle-vesicle association, Ca^2+-independent, and Ca^2+-triggered fusion. The surface of the quartz slides was passivated by coating the surface with polyethylene glycol (PEG) molecules which alleviated non-specific binding of vesicles. […]

The target of test [2] is T1, airway SNAREs only (Homo sapiens, UniProt O00161+Q13277+Q9BV40, C112S/C79S/C80S/C83S/C85S/C87S).
T1 sequence (Q9BV40 1-100): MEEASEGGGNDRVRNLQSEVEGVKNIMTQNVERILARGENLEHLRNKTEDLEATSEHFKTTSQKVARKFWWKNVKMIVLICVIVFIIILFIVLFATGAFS
T1 sequence (Q13277 1-289): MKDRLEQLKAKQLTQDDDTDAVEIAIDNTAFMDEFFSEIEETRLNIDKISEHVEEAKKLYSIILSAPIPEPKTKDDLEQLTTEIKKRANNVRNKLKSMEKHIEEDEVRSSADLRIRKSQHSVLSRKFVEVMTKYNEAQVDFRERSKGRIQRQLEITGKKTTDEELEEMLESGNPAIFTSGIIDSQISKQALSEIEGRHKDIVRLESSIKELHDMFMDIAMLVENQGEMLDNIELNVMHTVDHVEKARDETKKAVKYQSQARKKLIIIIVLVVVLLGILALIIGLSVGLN
T1 sequence (O00161 1-211 C79S/C80S/C83S/C85S/C87S/C112S): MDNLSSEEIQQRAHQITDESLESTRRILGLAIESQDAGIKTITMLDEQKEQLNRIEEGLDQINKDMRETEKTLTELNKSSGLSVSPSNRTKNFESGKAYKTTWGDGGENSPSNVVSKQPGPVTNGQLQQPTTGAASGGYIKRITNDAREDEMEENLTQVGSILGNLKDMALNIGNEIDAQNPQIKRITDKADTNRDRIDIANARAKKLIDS
Briefly: Single vesicle content mixing assay, airway SNAREs only (VAMP8 vesicles). The class given is biochemical. The following applies: 10 μM peptide; raw count.
From the text: as §1

Where a SMILES comes first, the peptide text is derived from it. Bridges are numbered along the chain shown (N, C = ends). [ ]: non-standard residue; d: D form. S5 = C=CCCC[C@](C)(N)C(=O)O

Turning to “EESKDAGIRTLVMLDEQGEQLD [Peptide P0, non-stapled SNAP-25A fragment used as a control, reference compound]”, the “Ca2+ independent fusion events” value in test [1] was found to be 104; in test [2], 38.
Consider “Ac-SKD(S5)GIR(S5)LVMLDE(S5)GEQ(S5)DR-amide (Ac-SKD[S5]GIR[S5]LVMLDE[S5]GEQ[S5]DR-NH2; staple 15-19, 4-8; SMILES CC[C@H](C)[C@@H]1NC(=O)CNC(=O)[C@@](C)(NC(=O)[C@H](CC(=O)O)NC(=O)[C@H](CCCCN)NC(=O)[C@H](CO)NC(C)=O)CCCC=CCCC[C@@](C)(C(=O)N[C@@H](CC(C)C)C(=O)N[C@H](C(=O)N[C@@H](CCSC)C(=O)N[C@@H](CC(C)C)C(=O)N[C@@H](CC(=O)O)C(=O)N[C@@H](CCC(=O)O)C(=O)N[C@@]2(C)CCCC=CCCC[C@@](C)(C(=O)N[C@@H](CC(=O)O)C(=O)N[C@@H](CCCNC(=N)N)C(N)=O)NC(=O)[C@H](CCC(N)=O)NC(=O)[C@H](CCC(=O)O)NC(=O)CNC2=O)C(C)C)NC(=O)[C@H](CCCNC(=N)N)NC1=O) [SP1]”, for which the “Ca2+ independent fusion events” value is 245 in test [1] and 26 in test [2].
For `CC[C@H](C)[C@H](NC(=O)[C@]1(C)CCCC=CCCC[C@](C)(NC(=O)[C@H](CCC(=O)O)NC(=O)[C@H](CCC(=O)O)NC(C)=O)C(=O)N[C@@H](CCCCN)C(=O)N[C@@H](CC(=O)O)C(=O)N[C@@H](C)C(=O)N1)C(=O)N[C@@H](CCCNC(=N)N)C(=O)N[C@@]1(C)CCCC=CCCC[C@@](C)(C(=O)N[C@@H](CC(=O)O)C(=O)N[C@@H](CCC(=O)O)C(=O)N[C@@H](CCC(N)=O)C(=O)N[C@@H](CS)C(N)=O)NC(=O)[C@H](CCSC)NC(=O)[C@H](C(C)C)NC(=O)[C@H](CC(C)C)NC1=O` [SP9, Ac-EE(S5)KDA(S5)IR(S5)LVM(S5)DEQC-amide] (Ac-EE[S5]KDA[S5]IR[S5]LVM[S5]DEQC-NH2; staple 3-7, 10-14), the entries for the “Ca2+ independent fusion events” value in test [1] and in test [2] were 336 and 22, respectively.
On to “Ac-SKDA(S5)IRT(S5)VM(S5)DEQ(S5)EQL-amide (Ac-SKDA[S5]IRT[S5]VM[S5]DEQ[S5]EQL-NH2; staple 12-16, 5-9; SMILES CC[C@H](C)[C@@H]1NC(=O)[C@@](C)(NC(=O)[C@H](C)NC(=O)[C@H](CC(=O)O)NC(=O)[C@H](CCCCN)NC(=O)[C@H](CO)NC(C)=O)CCCC=CCCC[C@@](C)(C(=O)N[C@H](C(=O)N[C@@H](CCSC)C(=O)N[C@@]2(C)CCCC=CCCC[C@@](C)(C(=O)N[C@@H](CCC(=O)O)C(=O)N[C@@H](CCC(N)=O)C(=O)N[C@@H](CC(C)C)C(N)=O)NC(=O)[C@H](CCC(N)=O)NC(=O)[C@H](CCC(=O)O)NC(=O)[C@H](CC(=O)O)NC2=O)C(C)C)NC(=O)[C@H]([C@@H](C)O)NC(=O)[C@H](CCCNC(=N)N)NC1=O) [SP4]”, for which the entries for the “Ca2+ independent fusion events” value in test [1] and in test [2] were 356 and 16, respectively.
As to “Ac-SKD(S5)GIR(S5)LV(S5)LDE(S5)GEQL-amide (Ac-SKD[S5]GIR[S5]LV[S5]LDE[S5]GEQL-NH2; staple 11-15, 4-8; SMILES CC[C@H](C)[C@@H]1NC(=O)CNC(=O)[C@@](C)(NC(=O)[C@H](CC(=O)O)NC(=O)[C@H](CCCCN)NC(=O)[C@H](CO)NC(C)=O)CCCC=CCCC[C@@](C)(C(=O)N[C@@H](CC(C)C)C(=O)N[C@H](C(=O)N[C@@]2(C)CCCC=CCCC[C@@](C)(C(=O)NCC(=O)N[C@@H](CCC(=O)O)C(=O)N[C@@H](CCC(N)=O)C(=O)N[C@@H](CC(C)C)C(N)=O)NC(=O)[C@H](CCC(=O)O)NC(=O)[C@H](CC(=O)O)NC(=O)[C@H](CC(C)C)NC2=O)C(C)C)NC(=O)[C@H](CCCNC(=N)N)NC1=O) [SP10]”, the “Ca2+ independent fusion events” value was 341 in test [1] and 18 in test [2].
